Test results as given in ChEMBL document CHEMBL3044544, “Synthesis, preliminary cytotoxicity evaluation of new 3-formylchromone hydrazones and phosphorohydrazone derivatives of coumarin and chromone” (Med Chem Res, 2012).
Structures can show the parent of a compound that is named as a salt. Activity calls are given as the source filed them. The calls are words filed in the database; no cut-off is given here.

How the values were obtained:
Assay type in all cases: functional, cell-based
NALM-6 = assay: Cytotoxicity against Homo sapiens (human) NALM6 cells assessed as reduction in cell survival fraction after 48 hr by MTT assay; conditions: NALM-6, 48 h
HL-60 [1] = assay: Cytotoxicity against Homo sapiens (human) HL60 cells assessed as reduction in cell survival fraction after 48 hr by MTT assay; conditions: HL-60, 48 h
[2] = Cytotoxicity against Homo sapiens (human) HL60/ADR cells assessed as reduction in cell survival fraction after 48 hr by MTT assay
HL-60 [3] = assay: Induction of apoptosis in Homo sapiens (human) HL60 cells assessed as increase in cytosolic cytochrome c level at 0.2 times IC50 after 0.5 hr by ELISA
HL-60 [4] = assay: Induction of apoptosis in Homo sapiens (human) HL60 cells assessed as increase in cytosolic cytochrome c level at 0.2 to 5 times IC50 by ELISA; conditions: TDE = time-dependent effect
HL-60 [5] = assay: Induction of apoptosis in Homo sapiens (human) HL60 cells assessed as increase in cytosolic cytochrome c level after 0.5 to 4 hr by ELISA
HL-60 [6] = assay: Induction of apoptosis in Homo sapiens (human) HL60 cells assessed as increase in cytosolic cytochrome c level at IC50 after 0.5 hr by ELISA
HL-60 [7] = assay: Induction of apoptosis in Homo sapiens (human) HL60 cells assessed as increase in cytosolic cytochrome c level at 5 times IC50 after 0.5 hr by ELISA

`COP(=S)(OC)N(C)/N=C/c1c(O)c2ccccc2oc1=O` showed an IC50 (NALM-6) of 56.5 µM and an IC50 (HL-60 [1]) of 61.8 µM.

`Nc1oc2ccccc2c(=O)c1/C=N/Nc1ccc(C(=O)O)cc1` showed an IC50 (NALM-6) of 628 µM and an IC50 (HL-60 [1]) of 940 µM.

For `CCOP(=S)(OCC)N(C)/N=C/c1c(O)c2ccccc2oc1=O`, the IC50 (NALM-6) was 66.5 µM and the IC50 (HL-60 [1]) was 86.3 µM.

In the case of `Nc1oc2ccc(Cl)cc2c(=O)c1/C=N/NCCO`, the IC50 [2] is reported as 7.9 µM, the Activity (HL-60 [3]) is reported as “Active” and the Activity (HL-60 [4]) is reported as “tde”. For the same compound, the Activity (HL-60 [5]) was “Dose-dependent effect”, the IC50 (NALM-6) was 28 µM and the IC50 (HL-60 [1]) was 6.6 µM. For the same compound, the Activity (HL-60 [6]) was “Active” and the Activity (HL-60 [7]) was “Active”.

`COc1cccc2c1C(=O)c1c(O)c3c(c(O)c1C2=O)C[C@@](O)(C(=O)CO)C[C@@H]3O[C@H]1C[C@H](N)[C@H](O)[C@H](C)O1` [DOXORUBICIN HYDROCHLORIDE] gave an IC50 (HL-60 [1]) of 0.04 µM.

Compound `O=c1c(/C=N/Nc2cc(Cl)ccc2Cl)coc2ccccc12` has an IC50 (NALM-6) of 85.3 µM and an IC50 (HL-60 [1]) of 265 µM.

Work on `COC(=O)N/N=C/c1c(N)oc2ccccc2c1=O` yielded an IC50 (NALM-6) of 407 µM and an IC50 (HL-60 [1]) of 463 µM.

Compound `Nc1oc2ccccc2c(=O)c1/C=N/NCCO` has an IC50 (NALM-6) of 42.1 µM and an IC50 (HL-60 [1]) of 48.5 µM.

With `Cc1cc2oc(N)c(/C=N/NCCO)c(=O)c2cc1C` the IC50 (NALM-6) was 65.3 µM and the IC50 (HL-60 [1]) was 23.5 µM.

With `COP(=S)(OC)N(C)/N=C/c1coc2ccccc2c1=O` the IC50 [2] was 30.6 µM, the Activity (HL-60 [3]) was “Active” and the Activity (HL-60 [4]) was “tde”. For the same compound, the Activity (HL-60 [5]) was “Dose-dependent effect”, the IC50 (NALM-6) was 28.8 µM and the IC50 (HL-60 [1]) was 34.4 µM. For the same compound, the Activity (HL-60 [6]) was “Active” and the Activity (HL-60 [7]) was “Active”.

Compound `Nc1oc2ccccc2c(=O)c1/C=N/Nc1cc(Cl)ccc1Cl` has an IC50 (NALM-6) of 500 µM and an IC50 (HL-60 [1]) of over 1000 µM.

With `CC(=O)CC(c1ccccc1)c1c(O)c2ccccc2oc1=O` (stereo not given) [WARFARIN] the IC50 (NALM-6) was 74.8 µM and the IC50 (HL-60 [1]) was 486 µM.

`Nc1oc2ccccc2c(=O)c1/C=N/N=C(c1ccccc1)c1ccccc1` showed an IC50 [2] of 54.8 µM, an IC50 (NALM-6) of 102 µM and an IC50 (HL-60 [1]) of 56.2 µM.

In the case of `COC(=O)N/N=C/c1coc2ccccc2c1=O`, the IC50 (NALM-6) is reported as 309 µM and the IC50 (HL-60 [1]) is reported as 371 µM.
